Results: PMC7118841 (Biomedicine & Pharmacotherapy, 2006)
Read-outs that look alike come from different tables or passages of the source.

Key:
TGEV = assay type: cell-based, transmissible gastroenteritis virus of swine; conditions: read-out: EC50, TGEV
FIPV = assay type: cell-based, feline infectious peritonitis virus; conditions: read-out: EC50, FIPV
SARS-V = assay type: cell-based, SARS coronavirus; conditions: read-out: EC50, SARS-V
FluV A [1] = conditions: read-out: EC50 against FluV A; cited from earlier work
[2] = system: FluV A (N3H2/Ishikawa and H1N1/PR8); conditions: rhodamine-labeled virus, MDCK cells; 10 and 25 μM; cited from earlier work
[3] = system: Ishikawa/AH3N2/(plaque purified) strain; conditions: read-out: EC50, MTT; Parent strain; cited from earlier work
[4] = system: Ishikawa/AH3N2/(plaque purified) strain; conditions: read-out: EC50, Plaque reduction; Parent strain; cited from earlier work
[5] = system: FluV A R-1 (HA Lys189Asn, Ile202Thr); conditions: read-out: EC50, MTT; strain R-1; cited from earlier work
[6] = system: FluV A R-1 (HA Lys189Asn, Ile202Thr); conditions: read-out: EC50, Plaque reduction; strain R-1; cited from earlier work
[7] = system: FluV A R-2 (HA Ile202Thr); conditions: read-out: EC50, MTT; strain R-2; cited from earlier work
[8] = system: FluV A R-2 (HA Ile202Thr); conditions: read-out: EC50, Plaque reduction; strain R-2; cited from earlier work
[9] = system: FluV A R-4 (HA Ile202Thr); conditions: read-out: EC50, MTT; strain R-4; cited from earlier work
[10] = system: FluV A R-4 (HA Ile202Thr); conditions: read-out: EC50, Plaque reduction; strain R-4; cited from earlier work
[11] = system: FluV A R-b (HA Lys189Asn); conditions: read-out: EC50, MTT; strain R-b; cited from earlier work
[12] = system: FluV A R-b (HA Lys189Asn); conditions: read-out: EC50, Plaque reduction; strain R-b; cited from earlier work
[13] = system: FluV A R-c (HA Lys189Asn, Ile202Val); conditions: read-out: EC50, MTT; strain R-c; cited from earlier work
[14] = system: FluV A R-c (HA Lys189Asn, Ile202Val); conditions: read-out: EC50, Plaque reduction; strain R-c; cited from earlier work
MDCK cells = conditions: cited from earlier work
FluV A (H1N1/PR8) = conditions: cited from earlier work
DFV = conditions: cited from earlier work
FluV A [15] = conditions: read-out: EC50, FluV A; MTT method; cited from earlier work
RSV = conditions: read-out: EC50, RSV; MTT method; cited from earlier work
PfluV 2 = conditions: read-out: EC50, PfluV 2; MTT method; cited from earlier work
CDV = conditions: read-out: EC50, CDV; plaque reduction method; cited from earlier work
HIV-1 = conditions: read-out: EC50, HIV-1; MTT method; cited from earlier work

Substance: (iPrNH3)6H[PTi2W10O38(O2)2]H2O [PM-523]
- EC50 (TGEV): 2.5 ± 0.6 µM
- EC50 (FIPV): > 32 µM
- EC50 (SARS-V): > 50 µM
- EC50 (FluV A [1]): 2.4 µM
- dequenching of fluorescence (fusion of FluV A envelope with cell membrane) [2]: remarkably reduced
- EC50 [3]: 8.7 ± 1.2 µM
- EC50 [4]: 6.6 ± 0.8 µM
- EC50 [5]: 71.4 ± 6.8 µM
- EC50 [6]: 74.5 ± 10.2 µM
- EC50 [7]: 67.8 ± 6.5 µM
- EC50 [8]: 73.6 ± 10.8 µM
- EC50 [9]: 79 ± 10.2 µM
- EC50 [10]: 88.1 ± 9.9 µM
- EC50 [11]: 63 ± 7 µM
- EC50 [12]: 66.7 ± 6.2 µM
- EC50 [13]: 80.3 ± 6.8 µM
- EC50 [14]: 78.9 ± 9.4 µM
- Percent viability of cells (MDCK cells; single compound at 100 μM, untreated cells = 100%): 81.1 ± 2.9%
- Percent viability of cells (MDCK cells; single compound at 200 μM): 89.3 ± 5.8%
- Percent viability of cells (MDCK cells; single compound at 400 μM): 85.2 ± 3.5%
- appearance of lungs of infected mice (FluV A (H1N1/PR8); 2.4 mM PM-523 alone, data not shown): swollen and reddened due to congestion
- mice survived on the 9th day (FluV A (H1N1/PR8); 4.8 mM PM-523 aerosol every 12 hours for 4 days, 10 LD50 FluV A): half
- survival at 14 days after the infection (FluV A (H1N1/PR8); 4.8 mM PM-523 alone): 20%
- antiviral activity against DFV (DFV): did not have antiviral activities
- EC50 (DFV; read-out: EC50, DFV, MTT method): > 61.5 µM
- EC50 (FluV A [15]): 5.6 ± 2 µM
- EC50 (RSV): 1.3 ± 0.5 µM
- EC50 (PfluV 2): 2.5 ± 1.3 µM
- EC50 (CDV): 7.3 ± 1.1 µM
- EC50 (HIV-1): 0.3 ± 0.1 µM
